Laboratory results as given in patent US7101876B2, “Substituted benzoxazines as integrin antagonists” (Pharmacia Corporation, priority 2001, dated 2006).

Experiments:
[1] = molecular target: T1, human αvβ3 integrin (Homo sapiens, UniProt P05106+P06756); test: αvβ3-vitronectin binding assay (solid phase)
T1 construct: Human vitronectin receptor (αvβ3) was purified from human placenta; from tissue; host or cells: human placenta
Description: (§1) A solid phase assay for the study of αvβ3-vitronectin binding was set up on the basis of already published methods (WONG et al., Molecular Pharmacology 50: 529–537, 1996; Brooks et al., Cell 85: 683–693, 1996). The human αvβ3 integrin was diluted into coating buffer (CB) containing 150 mM NaCl, 1 mM CaCl2, 1 mM MgCl2, 1 mM MnCl2, 20 mM TRIS, pH 7.4 at a concentration of 1.5 μg/ml. Into 96-well plates, 50 μl of the diluted integrin were added and allowed to bind to the plate walls overnight at 4° C. Next day, the assay plates were emptied and 100 μl of blocking buffer (CB buffer with 3% BSA) were added to each well for 45 min at 37° C. […] Then, the plates were washed as described and 50 μl of ready to use Turbo-TMB substrate for peroxydase were added to each well. After 30 minutes incubation at room temperature, the color development was stopped with 50 μl sulphuric acid 0.38 M and the plates were read at a wavelength of 450 nm with a Packard plate reader. The values obtained were analyzed by four parameters curve fit in the computer program GraphPad Prism, after normalization by a maximum binding control (Bmax) detected in wells where no competitor was added, and a minimum binding control (NSB) detected in wells where no integrin was coated. […]

[2] = molecular target: T2, αIIbβ3 integrin (Homo sapiens, UniProt P05106+P08514); test: αIIbβ3-fibrinogen binding assay (solid phase); details: inhibition of biotinylated fibrinogen (10 nM) binding to coated integrin; read-out: αIIbβ3 (IC50 μmol)
T2 construct: Human fibrinogen receptor (αIIbβ3) was purified from human platelets; from tissue; host or cells: human platelets
T2 sequence (P08514 32-887 limits assumed): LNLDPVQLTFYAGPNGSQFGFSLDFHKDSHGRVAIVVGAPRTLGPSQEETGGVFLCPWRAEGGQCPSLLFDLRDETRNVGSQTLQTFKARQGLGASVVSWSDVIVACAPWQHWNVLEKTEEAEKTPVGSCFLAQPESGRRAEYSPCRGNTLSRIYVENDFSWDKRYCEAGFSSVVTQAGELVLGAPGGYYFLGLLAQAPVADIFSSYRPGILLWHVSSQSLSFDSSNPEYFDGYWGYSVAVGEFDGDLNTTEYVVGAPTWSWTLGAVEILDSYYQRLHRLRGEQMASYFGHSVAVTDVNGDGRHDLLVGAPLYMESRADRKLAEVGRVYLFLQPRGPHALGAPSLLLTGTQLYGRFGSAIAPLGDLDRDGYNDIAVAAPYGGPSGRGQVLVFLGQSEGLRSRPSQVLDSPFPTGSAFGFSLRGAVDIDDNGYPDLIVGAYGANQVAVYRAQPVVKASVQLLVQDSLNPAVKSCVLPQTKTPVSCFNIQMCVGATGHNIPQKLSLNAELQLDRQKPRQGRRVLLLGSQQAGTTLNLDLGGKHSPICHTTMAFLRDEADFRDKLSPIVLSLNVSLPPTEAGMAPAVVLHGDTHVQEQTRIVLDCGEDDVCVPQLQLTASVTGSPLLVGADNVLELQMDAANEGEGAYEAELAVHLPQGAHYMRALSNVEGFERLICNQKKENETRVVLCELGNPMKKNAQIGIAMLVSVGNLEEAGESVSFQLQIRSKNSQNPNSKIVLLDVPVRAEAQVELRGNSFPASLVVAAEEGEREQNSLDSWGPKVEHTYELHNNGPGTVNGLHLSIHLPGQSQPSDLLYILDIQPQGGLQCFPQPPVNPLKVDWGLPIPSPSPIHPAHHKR
T2 sequence (P08514 891-1039 partner limits assumed): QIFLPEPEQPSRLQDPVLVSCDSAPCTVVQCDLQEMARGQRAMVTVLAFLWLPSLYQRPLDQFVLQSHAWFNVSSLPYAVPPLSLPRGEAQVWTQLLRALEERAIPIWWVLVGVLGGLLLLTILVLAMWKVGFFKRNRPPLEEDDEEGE
T2 sequence (P05106 27-788): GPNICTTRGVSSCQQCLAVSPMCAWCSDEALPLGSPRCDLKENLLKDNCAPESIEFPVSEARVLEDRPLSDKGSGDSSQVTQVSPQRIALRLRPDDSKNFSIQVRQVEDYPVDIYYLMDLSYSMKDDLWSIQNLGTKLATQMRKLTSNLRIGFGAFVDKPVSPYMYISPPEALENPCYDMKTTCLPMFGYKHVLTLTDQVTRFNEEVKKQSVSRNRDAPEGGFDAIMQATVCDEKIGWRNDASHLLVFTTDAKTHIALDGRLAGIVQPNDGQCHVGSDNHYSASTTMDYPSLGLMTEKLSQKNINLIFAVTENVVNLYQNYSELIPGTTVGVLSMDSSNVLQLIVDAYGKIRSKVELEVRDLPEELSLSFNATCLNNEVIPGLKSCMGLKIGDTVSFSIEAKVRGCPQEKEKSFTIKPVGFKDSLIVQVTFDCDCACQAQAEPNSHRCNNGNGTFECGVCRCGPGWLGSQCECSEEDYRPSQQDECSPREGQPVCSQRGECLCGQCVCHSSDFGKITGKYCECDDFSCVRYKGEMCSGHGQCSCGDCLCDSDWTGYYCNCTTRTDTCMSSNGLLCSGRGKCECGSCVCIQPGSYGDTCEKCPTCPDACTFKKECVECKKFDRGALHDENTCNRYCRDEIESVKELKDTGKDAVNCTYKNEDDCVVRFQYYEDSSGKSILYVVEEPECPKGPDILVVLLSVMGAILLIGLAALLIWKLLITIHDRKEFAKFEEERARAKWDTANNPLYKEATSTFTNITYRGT
Description: as §1, with “of αIIbβ3-fibrinogen” for “of αvβ3-vitronectin”, “up according to” for “up on”, “the method described for αvβ3. αIIbβ3” for “the basis of already published methods (WONG et al., Molecular Pharmacology 50: 529–537, 1996; Brooks et al., Cell 85: 683–693, 1996). The human αvβ3”, “mM Cacl2,” for “mM CaCl2,”, “of 3” for “of 1.5”, “fit with” for “fit in”

T1 sequence (P06756 31-889 limits assumed): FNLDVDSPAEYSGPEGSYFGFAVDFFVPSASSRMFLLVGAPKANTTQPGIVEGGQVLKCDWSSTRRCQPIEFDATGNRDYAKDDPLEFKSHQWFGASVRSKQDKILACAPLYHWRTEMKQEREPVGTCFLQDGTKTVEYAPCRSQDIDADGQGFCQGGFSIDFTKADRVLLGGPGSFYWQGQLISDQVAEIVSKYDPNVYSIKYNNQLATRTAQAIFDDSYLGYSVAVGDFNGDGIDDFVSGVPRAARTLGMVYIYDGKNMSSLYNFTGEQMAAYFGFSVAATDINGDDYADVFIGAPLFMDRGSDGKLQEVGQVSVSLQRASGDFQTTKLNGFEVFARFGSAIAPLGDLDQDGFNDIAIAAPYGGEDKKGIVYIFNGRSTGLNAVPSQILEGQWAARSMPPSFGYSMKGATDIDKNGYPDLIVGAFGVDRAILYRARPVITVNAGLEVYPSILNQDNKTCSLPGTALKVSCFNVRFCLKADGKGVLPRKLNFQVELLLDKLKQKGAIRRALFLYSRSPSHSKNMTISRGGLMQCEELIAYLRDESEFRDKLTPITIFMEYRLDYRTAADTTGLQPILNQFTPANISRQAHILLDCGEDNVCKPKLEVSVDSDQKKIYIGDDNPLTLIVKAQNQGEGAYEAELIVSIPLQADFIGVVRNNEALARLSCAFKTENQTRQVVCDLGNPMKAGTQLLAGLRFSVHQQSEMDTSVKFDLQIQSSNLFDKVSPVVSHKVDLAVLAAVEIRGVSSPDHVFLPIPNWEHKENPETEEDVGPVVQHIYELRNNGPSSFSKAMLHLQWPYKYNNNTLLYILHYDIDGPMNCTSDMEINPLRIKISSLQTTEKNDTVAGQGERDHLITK
T1 sequence (P06756 891-1048 partner limits assumed): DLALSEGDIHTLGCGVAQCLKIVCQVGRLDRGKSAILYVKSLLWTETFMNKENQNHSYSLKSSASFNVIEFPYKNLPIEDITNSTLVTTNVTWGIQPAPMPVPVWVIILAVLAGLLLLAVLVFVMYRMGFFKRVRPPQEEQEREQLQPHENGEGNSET
T1 sequence (P05106 27-788): as the sequence (P05106 27-788) above

IC50 ([1]; inhibition of biotinylated vitronectin (5 nM) binding to coated integrin, read-out: αvβ3 (IC50 μmol)): 0.011 ± 0.004 µM
ratio between αIIbβ3 and αvβ3 inhibiting activity ([1]; selectivity, αIIbβ3 IC50 / αvβ3 IC50): about 1,000
IC50 [2]: 18 µM
Compound: O=C(O)CC(Nc1ccc2c(c1)OCC(=O)N2CCCNc1ccccn1)c1ccccc1 (stereo not drawn) [3-{4-[3-(N-(2-pyridinyl)amino)propyl]-3-oxo-3,4-dihydro-2H-1,4-benzoxazin-7-yl)amino}-3-phenylpropanoic acid]
